Data from US20080249024A1, “Peptides facilitating or inhibiting a nterograde transport” (priority 2006, published 2008).
Several values for one entry are separate records, joined by “and”; a condition that tells them apart may be missing. Identical values can stand only once. Like-named read-outs stand apart in the source and are kept apart here.

How the values were obtained:
[1] = tested on: giant axon of the squid; test: Transport of peptide- or protein-conjugated fluorescent beads injected into the squid giant axon, confocal time-lapse; assay type: cell-based, squid (Loligo pealei); settings: for Max. Velocity / Ave. Velocity (instantaneous): beads conjugated to peptide/protein; for Ave. Velocity (instantaneous): number of moves in brackets; for beads leaving the injection site per minute: 10^6 beads injected; for transport behaviour of conjugated beads in the axon (in words): co-injected with other beads into the same axon
Description: The giant axon was obtained from squid (Loligo pealei) at the Marine Biological Laboratory, Woods Hole, Mass. (46). Red and green beads, each conjugated to a different peptide (1.5 nl at […]), were loaded into a mercury micropipette either as a mixture or in equal volumes separated by oil (Bearer, E. L., et al., (2000) Proc Natl Acad Sci USA 97, 8146-50; Terasaki, M., S. et al., (1995) Proc Natl Acad Sci U S A 92, 11500-3; Jaffe, L. A. & Terasaki, M. (2004) Methods Cell Biol 74, 219-42, FIG. S1). For each pair of beads the order of injection was alternated such that each color would have an opportunity to recruit motors first.
Carboxylated microspheres (beads, 0.1 μm diameter) with red (580/605 nm) and green (505/515 nm) fluorescence (Invitrogen) were washed through a Low Binding Durapore filter (100 nm cut-off, Millipore). Uncoated beads were diluted in motility buffer (Brady, S. et al., (1982) Science 218, 1129-31) and injected without further treatment.
Custom synthesized peptides (Aves Labs, Inc) were cross-linked to beads via their amino terminus to allow presentation of the carboxy end of the peptide to the cytoplasm, mimicking the physiological orientation of APP. APP constructs (C99 and APP-680) were generated by PCR from human APP-YFP in pShuttleCMV (E.-M. Mandelkow and Jacek Biernat, Max Planck Institute, Hamburg, Germany (Stamer, K., V. et al., (2002) J Cell Biol 156, 1051-63)). APP-YFP is actively transported in neurons (Stamer et al., supra). For C99, the YFP moiety was replaced with mRFP (Campbell, R. E., et al., (2002) Proc Natl Acad Sci USA 99, 7877-82.) and for APP-680 with GFP. Each construct was cross-linked to a bead of similar spectrum as the fluorescent protein, and conjugated beads individually checked for monochromic emission by confocal. […] Accuracy of all sequences was confirmed by sequencing. Recombinant protein was generated in PC12 cells and purified by anti-fluorescent protein affinity columns (Vector Labs). Protein concentrations were determined by Bio-Rad protein assay, and composition and purity determined by SDS-PAGE.
Peptides or recombinant proteins (20 μl of a 2 mg/ml stock) were mixed in 300 μl of 50 mM MES buffer with 10 μl of 2% beads for 15 min. Cross-linker (1-(3-dimethylaminopropyl)-3-ethylcarbodiimide hydrochloride; EDAC, Molecular Probes) was added to a concentration of 10 μg/ml and the solution adjusted to pH 6.5 with 1M NaOH. After 5 hr the reaction was quenched by adding 2M glycine for a final of 0.1M. Conjugation was confirmed by analyzing peptide concentrations before and after by protein assay. Protein:bead ratio was adjusted that equivalent molar amounts of each protein would be conjugated to the beads. Efficiency of conjugation was relatively similar for all peptides. Binding sites on the beads (10^6) were saturated by using 300-1000 fold excess peptide. For C99 and APP-680, protein concentration was adjusted so that 3,000 copies per bead were conjugated to the surface and unoccupied sites blocked with glycine.
Detection parameters were set to ensure that each color was uniquely detected in its appropriate channel by imaging beads on coverslips with the Zeiss LSM 510 Laser Scanning Confocal Microscope. Fluorescent bead movements in the axon were collected with 10× Plan Neofluor 0.3NA air, and 40× Achroplan 0.8NA water correctible objectives. Green and red fluorescence and phase images were collected simultaneously using Zeiss LSM510 multi-tracking.
Rates and trajectories of APP-C beads were measured by stepping through the frames in either the Zeiss LSM browser or NIH ImageJ (http://rsb.info.nih.gov/nih-image/). Only particles moving into and out of a frame were included. Rates of moving particles were statistically analyzed and graphed using Microsoft Excel.

[2] = molecular target: axoplasmic motors (squid giant axon); test: cell-based or functional assay
[3] = tested on: kinesin 1 heavy chain; test: Peptide-bead pull-down from rat brain extract, Western blot for kinesin 1; assay type: binding; settings: Western blot of beads and supernatants
Description: (§1) Rat brain extract was prepared from frozen rat brain (Pelco). Rat brain was cut from a frozen block of cortex, weighed, and solubilized in 1% Triton and buffer with sonication (3 times 1 sec bursts with a Branson sonicator set at microtip 4). After clarifying centrifugation at 15,000×g for 15 min, 10 μl of extract in pulldown buffer (Lazarov et al. 2005, supra) was layered over carboxylated beads conjugated to various peptides according to the manufacturer's instructions (Dynal).

[4] = tested on: giant squid axon; test: JIP peptide-coated bead transport in giant squid axon, confocal microscopy; assay type: cell-based; settings: injection site imaged at 0 and 55 min
Description: (§2) JIP peptide was conjugated to 100 nm fluorescent nanospheres (beads) following the protocol described in Example 1. Washed conjugated beads were injected into a freshly dissected giant squid axon and transport imaged by confocal microscopy.

[5] = tested on: giant axon; test: Comparison of velocity of JIP and APP peptide beads and carboxylated negative charge beads in the giant axon (Metamorph); assay type: cell-based, squid
Description: as §2
Movements of beads conjugated to APP-C, JIP, or unconjugated (negative charge) after injection in the axon were measured using Metamorph imaging software (Molecular Devices). Average velocity of JIP beads was 20% faster than APP or negative charge. As is known, negative charge beads are transported in the axon but less frequently than peptide-conjugated beads.
The different surfaces of the beads influence the average rate of movements. In this experiment, movements between frames were measured only when beads moved into and out of the frame.

[6] = molecular target: T1, kinesin 3 (Kif1a) (Rattus norvegicus, UniProt F1M4A4); test: Peptide-bead pull-down from rat brain extract, Western blot for kinesin 3; assay type: binding; settings: Western blot of beads and supernatants
T1 construct: tissue Pelco; host or cells: rat brain cortex extract
Description: as §1

[7] = molecular target: axoplasmic motors (squid giant axon); test: cell-based or functional assay; remark: listed apart in the source

T1 sequence (F1M4A4 whole entry): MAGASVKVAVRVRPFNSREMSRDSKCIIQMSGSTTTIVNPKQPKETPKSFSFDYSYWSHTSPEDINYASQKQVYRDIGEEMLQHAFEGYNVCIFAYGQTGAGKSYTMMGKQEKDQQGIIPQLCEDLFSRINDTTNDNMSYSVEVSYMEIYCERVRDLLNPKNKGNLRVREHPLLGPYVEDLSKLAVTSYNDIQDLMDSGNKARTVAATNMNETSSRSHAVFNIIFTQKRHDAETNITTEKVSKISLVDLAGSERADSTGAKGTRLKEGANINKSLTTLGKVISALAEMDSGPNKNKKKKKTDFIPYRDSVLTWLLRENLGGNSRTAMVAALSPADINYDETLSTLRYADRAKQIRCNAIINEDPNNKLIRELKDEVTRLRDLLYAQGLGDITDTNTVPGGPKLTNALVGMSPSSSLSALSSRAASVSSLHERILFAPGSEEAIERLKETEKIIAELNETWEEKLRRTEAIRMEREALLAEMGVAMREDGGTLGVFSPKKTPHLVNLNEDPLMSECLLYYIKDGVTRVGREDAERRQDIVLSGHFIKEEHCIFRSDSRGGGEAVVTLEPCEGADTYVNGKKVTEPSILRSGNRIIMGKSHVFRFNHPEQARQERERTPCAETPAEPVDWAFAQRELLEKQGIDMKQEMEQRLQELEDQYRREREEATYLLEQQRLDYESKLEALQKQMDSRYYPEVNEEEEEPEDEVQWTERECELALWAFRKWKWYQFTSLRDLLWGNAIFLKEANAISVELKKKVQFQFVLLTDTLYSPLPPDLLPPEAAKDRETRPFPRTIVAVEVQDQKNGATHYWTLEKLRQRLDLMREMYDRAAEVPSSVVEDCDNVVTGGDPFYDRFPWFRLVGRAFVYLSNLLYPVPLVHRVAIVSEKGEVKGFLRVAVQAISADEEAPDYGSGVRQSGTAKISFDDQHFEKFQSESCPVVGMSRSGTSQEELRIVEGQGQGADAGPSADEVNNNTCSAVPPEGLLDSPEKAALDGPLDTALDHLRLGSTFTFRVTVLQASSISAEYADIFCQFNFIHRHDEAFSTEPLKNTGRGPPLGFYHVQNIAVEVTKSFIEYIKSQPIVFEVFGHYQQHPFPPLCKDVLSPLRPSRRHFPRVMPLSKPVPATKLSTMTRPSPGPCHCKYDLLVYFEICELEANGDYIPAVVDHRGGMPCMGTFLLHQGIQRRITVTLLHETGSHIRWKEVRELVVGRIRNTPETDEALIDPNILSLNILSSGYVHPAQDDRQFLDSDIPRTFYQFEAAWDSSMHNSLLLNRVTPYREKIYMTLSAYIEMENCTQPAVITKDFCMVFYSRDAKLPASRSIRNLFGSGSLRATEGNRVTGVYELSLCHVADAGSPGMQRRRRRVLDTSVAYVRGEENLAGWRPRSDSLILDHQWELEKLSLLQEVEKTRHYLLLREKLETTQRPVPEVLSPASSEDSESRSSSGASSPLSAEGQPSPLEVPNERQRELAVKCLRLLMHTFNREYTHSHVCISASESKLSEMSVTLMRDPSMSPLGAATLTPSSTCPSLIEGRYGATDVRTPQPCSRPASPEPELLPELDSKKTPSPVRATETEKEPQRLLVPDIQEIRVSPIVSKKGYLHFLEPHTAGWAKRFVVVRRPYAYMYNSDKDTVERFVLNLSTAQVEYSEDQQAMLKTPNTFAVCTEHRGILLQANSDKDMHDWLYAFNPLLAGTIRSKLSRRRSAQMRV

## GYENPTYKYFE-MQN (GYENPTYKYFEMQN; listed as Loligo pealei) [APP-C (squid)]
[1]
  Max. Velocity: 0.9 μm/s
  Ave. Velocity (instantaneous): 0.53 +/− 0.09 (54) μm/s

## C99, a polypeptide containing the C-terminal 99 amino acids of human APP (with mRFP in place of YFP) (from UniProt P05067 597-695)
[2]
  percent of beads that move (squid giant axon, no peptide): 39.5%
  percent of beads that move after pre-injection of soluble APP-C peptide: 10.3%

## HMNCQNGKWDSDPSGTKTCI (listed as Homo sapiens) [APP-N, reference compound]
[1]
  beads leaving the injection site per minute: ~0.001 ×10^3 per minute
  transport behaviour of conjugated beads in the axon (in words): remained stationary at the injection site

## GEPYFEMNYNTKFQQ (listed as Homo sapiens) [APP-C^j, reference compound]
[1]
  beads leaving the injection site per minute: None

## C99: recombinant C-terminal 99 amino acids of human APP with mRFP, full cytoplasmic domain; 3,000 copies per 100 nm bead
[1]; axon pre-injected with soluble APP-C peptide, average of 3 100-frame videos
  percent of beads that move, with peptide: 10.3%+/−4.4
[1]
  Max. Velocity: 1.46 μm/s
  Ave. Velocity (instantaneous): 0.66+/−0.08 μm/s and 0.66 +/− 0.08 (194) μm/s
  transport behaviour of conjugated beads in the axon (in words): both types of beads were transported
[1]; without peptide, moving = translocated >3 consecutive frames, average of 3 100-frame videos, within 500 μm of injection site
  percent of beads that move: 39.5%+/−4.5

## GYENPTYKFFEQMQN (listed as Homo sapiens) [APP-C, tested conjugated to beads or as soluble peptide]
[1]
  Max. Velocity: 0.9 μm/s
  Ave. Velocity (instantaneous): 0.41 +/− 0.07 (227) μm/s
[3]
  pull-down of kinesin 1 heavy chain from brain extract: preferentially bind to kinesin 1 heavy chain

## FVE YTC PTE DIY LE (FVEYTCPTEDIYLE) [JIP-1]
[4]
  transport of JIP beads in the axon (in words): a stream of beads can be seen heading towards the synapse
[5]
  average velocity faster than APP or negative charge beads: 20%
  speed relative to negative charge beads (in words): almost twice as fast
[5]; beads in the giant axon
  Max velocity: 0.96 μm/sec
[5]; instantaneous velocity of beads in the axon, only beads moving into and out of the frame
  Ave velocity: 0.5 +/− 0.01 μm/sec
[6]
  pull-down of kinesin 3 (Kif1a) from brain extract: preferentially pulls down kinesin 3 (Kif1a)

## GYENPTYKFFEQMQN
[7]
  percent of beads that move (squid giant axon, no peptide): 36%
  percent of beads that move after pre-injection of soluble APP-C peptide: 0%
